Results reported in ChEMBL document CHEMBL1201862, “PubChem BioAssay data set” (2004).
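Briefly, cells in 96-well plates were exposed to five compound concentrations for 48 h, and endpoints were estimated by linear interpolation. At the GI50, growth is halved.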 Activity calls are given as the source filed them. No stated cut-off is given here; in the data, active = GI50 up to about 1.1 µM and inactive = higher.

Tests used:
Test in all cases: NCI tumour cell line growth inhibition, 48 h
[1] = tested on: HCC 2998
[2] = tested on: HL-60
[3] = tested on: UO-31
[4] = tested on: DMS-114
[5] = tested on: OVCAR-8
[6] = tested on: KM-20L2
[7] = tested on: CCRF-CEM
[8] = tested on: U-251
[9] = tested on: SK-MEL-2
[10] = tested on: NCI-H522
[11] = tested on: OVCAR-3
[12] = tested on: SNB-78
[13] = tested on: SN12C
[14] = tested on: UACC-257
[15] = tested on: NCI-H226
[16] = tested on: SW-620
[17] = tested on: LOX IMVI
[18] = tested on: HCT-15
[19] = tested on: SR
[20] = tested on: HOP-62
[21] = tested on: HT-29
[22] = tested on: RPMI-8226
[23] = tested on: M14
[24] = tested on: SNB-19
[25] = tested on: CAKI-1
[26] = tested on: SK-OV-3
[27] = tested on: TK-10
[28] = tested on: 786-0
[29] = tested on: DMS-273
[30] = tested on: Malme-3M
[31] = tested on: COLO 205
[32] = tested on: SK-MEL-28
[33] = tested on: SF-539
[34] = tested on: K562
[35] = tested on: KM12
[36] = tested on: NCI-H23
[37] = tested on: HCT-116
[38] = tested on: SF-295
[39] = tested on: ACHN
[40] = tested on: OVCAR-5
[41] = tested on: SF-268
[42] = tested on: XF498
[43] = tested on: EKVX
[44] = tested on: M19-MEL
[45] = tested on: NCI-H460
[46] = tested on: A549
[47] = tested on: MOLT-4
[48] = tested on: IGROV-1
[49] = tested on: OVCAR-4
[50] = tested on: SNB-75
[51] = tested on: HOP-92
[52] = tested on: DLD-1
[53] = tested on: SK-MEL-5
[54] = tested on: LXFL 529
[55] = tested on: UACC-62
[56] = tested on: RXF 393

In the case of `COCC(O)Cn1ccnc1[N+](=O)[O-]` (stereo unspecified) [MISONIDAZOLE], the GI50 [1] is reported as > 100 µM (inactive), the GI50 [2] is reported as > 100 µM (inactive) and the GI50 [3] is reported as > 100 µM (inactive). For the same compound, the GI50 [4] was > 100 µM (inactive), the GI50 [5] was > 100 µM (inactive) and the GI50 [6] was > 100 µM (inactive). The GI50 [7] was > 100 µM (inactive), the GI50 [8] was > 100 µM (inactive) and the GI50 [9] was > 100 µM (inactive). The GI50 [10] was > 100 µM (inactive), the GI50 [11] was > 100 µM (inactive) and the GI50 [12] was > 100 µM (inactive). For the same compound, the GI50 [13] was > 100 µM (inactive), the GI50 [14] was > 100 µM (inactive) and the GI50 [15] was > 100 µM (inactive). For the same compound, the GI50 [16] was > 100 µM (inactive), the GI50 [17] was > 100 µM (inactive) and the GI50 [18] was > 100 µM. For the same compound, the GI50 [19] was > 100 µM (inactive), the GI50 [20] was > 100 µM (inactive) and the GI50 [21] was > 100 µM (inactive). The GI50 [22] was > 100 µM (inactive), the GI50 [23] was > 100 µM (inactive) and the GI50 [24] was > 100 µM (inactive). The GI50 [25] was > 100 µM (inactive), the GI50 [26] was > 100 µM (inactive) and the GI50 [27] was > 100 µM (inactive). The GI50 [28] was > 100 µM (inactive), the GI50 [29] was > 100 µM (inactive) and the GI50 [30] was > 100 µM (inactive). For the same compound, the GI50 [31] was > 100 µM (inactive), the GI50 [32] was > 100 µM (inactive) and the GI50 [33] was > 100 µM (inactive). For the same compound, the GI50 [34] was > 100 µM (inactive), the GI50 [35] was > 100 µM (inactive) and the GI50 [36] was > 100 µM (inactive). For the same compound, the GI50 [37] was > 100 µM (inactive), the GI50 [38] was > 100 µM (inactive) and the GI50 [39] was > 100 µM (inactive). For the same compound, the GI50 [40] was > 100 µM (inactive), the GI50 [41] was > 100 µM (inactive) and the GI50 [42] was > 100 µM (inactive). For the same compound, the GI50 [43] was > 100 µM (inactive), the GI50 [44] was > 100 µM (inactive) and the GI50 [45] was > 100 µM (inactive). For the same compound, the GI50 [46] was > 100 µM (inactive) and the GI50 [47] was > 100 µM (inactive).
`COc1ccc(/C=c2/sc3n(c2=O)NC2(CCCCC2)NN=3)cc1` was tested, and the GI50 [1] was > 100 µM (inactive), the GI50 [3] was > 100 µM (inactive) and the GI50 [5] was > 100 µM (inactive). The GI50 [48] was > 100 µM (inactive), the GI50 [49] was > 100 µM (inactive) and the GI50 [6] was > 100 µM (inactive). For the same compound, the GI50 [7] was > 100 µM (inactive), the GI50 [8] was > 10 µM (inactive) and the GI50 [9] was > 100 µM (inactive). For the same compound, the GI50 [10] was > 100 µM (inactive), the GI50 [11] was > 100 µM (inactive) and the GI50 [12] was > 100 µM (inactive). The GI50 [13] was > 100 µM (inactive), the GI50 [50] was 92.7 µM (inactive) and the GI50 [15] was > 100 µM (inactive). For the same compound, the GI50 [51] was > 100 µM (inactive), the GI50 [16] was > 100 µM (inactive) and the GI50 [17] was > 100 µM (inactive). For the same compound, the GI50 [52] was > 100 µM (inactive), the GI50 [19] was > 100 µM (inactive) and the GI50 [21] was > 100 µM (inactive). The GI50 [23] was > 100 µM (inactive), the GI50 [24] was > 100 µM (inactive) and the GI50 [25] was > 100 µM (inactive). The GI50 [26] was > 100 µM (inactive), the GI50 [53] was > 100 µM (inactive) and the GI50 [27] was > 100 µM (inactive). The GI50 [54] was > 100 µM (inactive), the GI50 [28] was > 100 µM (inactive) and the GI50 [29] was > 100 µM (inactive). The GI50 [30] was > 100 µM (inactive), the GI50 [31] was > 100 µM (inactive) and the GI50 [32] was > 100 µM (inactive). For the same compound, the GI50 [33] was > 100 µM (inactive), the GI50 [34] was > 100 µM (inactive) and the GI50 [35] was > 100 µM (inactive). The GI50 [36] was > 100 µM (inactive), the GI50 [37] was > 100 µM (inactive) and the GI50 [38] was > 100 µM (inactive). The GI50 [40] was > 100 µM (inactive), the GI50 [41] was > 100 µM (inactive) and the GI50 [42] was > 100 µM (inactive). The GI50 [43] was > 100 µM (inactive), the GI50 [55] was > 100 µM (inactive) and the GI50 [44] was > 100 µM (inactive). The GI50 [45] was > 100 µM (inactive), the GI50 [46] was > 100 µM (inactive) and the GI50 [56] was > 100 µM (inactive). The GI50 [47] was > 100 µM (inactive).
